For orientation: AUC(0-inf) means total exposure, with the tail of the curve extrapolated. In general, Cmax refers to the peak of the concentration-time curve.

Consider one molecule from paper PMC12406652 (Antimicrobial Agents and Chemotherapy, 2025).

A short description of the data set: Drug-drug interaction, single dose CTB 400 mg + LED-E 500 mg, cross-over (VNRX-7145-102 Part 1). The following applies: human, plasma, oral.

For `CCC(=O)N[C@H]1Cc2cccc(C(=O)OCOC(=O)C(CC)CC)c2OB1O` [Ledaborbactam etzadroxil], the AUC(0-inf) amounted to 1070 ng·h/mL and the Cmax worked out at 787 ng/mL. Further, under “500 mg”, the AUC(0-inf) stood at 1140 ng·h/mL and the Cmax worked out at 1040 ng/mL.
